Results on two substances are retold here after patent publication US5840999A, “Asymmetric benzoxanthene dyes” (The Perkin-Elmer Corporation, priority 1997, dated 1998).

Assay type in all cases: physicochemical
A short description of data set [1]: Relative brightness at λmax Em with 514 nm excitation. As to conditions: pure dye isomer 2, approximately equal concentrations (λmax Abs=0.05). The protocol:
(§1) See FIGS. 1 and 2 for the structures of the dyes referred to in the table. All data are reported for pure dye isomer 2. All emission spectra were recorded in 1×TBE buffer at pH 8.4 in dye solutions having an absorbance of 0.05 at λmax Abs (ca. 1×10^-6 M) at room temperature. Photodecomposition rate was determined for equal volumes of the dyes at initially 1 absorption unit at λmax Abs and run in pairs at equal volumes under equal high intensity white light irradiation at 35° C. in 1×TBE buffer pH 8.4. […] (λmax Abs=0.05).

Data set [2] can be described thus: Emission spectra of pure dyes (Table II). To be noted: pure dye isomer 2, room temperature; for λmax Em: 1×TBE buffer pH 8.4, absorbance 0.05 at λmax Abs; for Width at Half Height: emission spectrum in 1×TBE buffer pH 8.4.
A short description of data set [3]: Photodecomposition under high intensity white light. To be noted: pure dye isomer 2, 35° C., 1×TBE buffer pH 8.4, from t1/2 for loss of dye. As to the method:
as §1

Data set [4] in a line: Stability in concentrated NH4OH at 60° C. To be noted: pure dye isomer 2, concentrated ammonia hydroxide, sealed vials, first order fit. As to the method:
as §1

For “6-carboxy-4,7,2',4',5',7',-hexachlorofluorescein”, the “Relative Brightness” value in data set [1] amounted to 2.4. In addition, in data set [2], the “λmax Em” value came to 550 nm and the “Width at Half Height” value worked out at 32 nm. Moreover, the “Relative Photostability” value in data set [3] turned out to be 17. In addition, in data set [4], the “Stability in NH4OH - t1/2” value is 11 h.
Regarding TAMRA, the “Relative Brightness” value in data set [1] is given as 0.9. In data set [2], the “λmax Em” value was found to be 577 nm and the “Width at Half Height” value is reported as 39 nm. Moreover, the “Stability in NH4OH - t1/2” value in data set [4] was 1.3 h.
